What all share (experiment): Kinase panel (mobility shift)
Common to all, as to type: biochemical

The target in experiment [1] is T1, EPH-A6 (Homo sapiens, UniProt Q9UF33).
T1 sequence (Q9UF33 23-1036): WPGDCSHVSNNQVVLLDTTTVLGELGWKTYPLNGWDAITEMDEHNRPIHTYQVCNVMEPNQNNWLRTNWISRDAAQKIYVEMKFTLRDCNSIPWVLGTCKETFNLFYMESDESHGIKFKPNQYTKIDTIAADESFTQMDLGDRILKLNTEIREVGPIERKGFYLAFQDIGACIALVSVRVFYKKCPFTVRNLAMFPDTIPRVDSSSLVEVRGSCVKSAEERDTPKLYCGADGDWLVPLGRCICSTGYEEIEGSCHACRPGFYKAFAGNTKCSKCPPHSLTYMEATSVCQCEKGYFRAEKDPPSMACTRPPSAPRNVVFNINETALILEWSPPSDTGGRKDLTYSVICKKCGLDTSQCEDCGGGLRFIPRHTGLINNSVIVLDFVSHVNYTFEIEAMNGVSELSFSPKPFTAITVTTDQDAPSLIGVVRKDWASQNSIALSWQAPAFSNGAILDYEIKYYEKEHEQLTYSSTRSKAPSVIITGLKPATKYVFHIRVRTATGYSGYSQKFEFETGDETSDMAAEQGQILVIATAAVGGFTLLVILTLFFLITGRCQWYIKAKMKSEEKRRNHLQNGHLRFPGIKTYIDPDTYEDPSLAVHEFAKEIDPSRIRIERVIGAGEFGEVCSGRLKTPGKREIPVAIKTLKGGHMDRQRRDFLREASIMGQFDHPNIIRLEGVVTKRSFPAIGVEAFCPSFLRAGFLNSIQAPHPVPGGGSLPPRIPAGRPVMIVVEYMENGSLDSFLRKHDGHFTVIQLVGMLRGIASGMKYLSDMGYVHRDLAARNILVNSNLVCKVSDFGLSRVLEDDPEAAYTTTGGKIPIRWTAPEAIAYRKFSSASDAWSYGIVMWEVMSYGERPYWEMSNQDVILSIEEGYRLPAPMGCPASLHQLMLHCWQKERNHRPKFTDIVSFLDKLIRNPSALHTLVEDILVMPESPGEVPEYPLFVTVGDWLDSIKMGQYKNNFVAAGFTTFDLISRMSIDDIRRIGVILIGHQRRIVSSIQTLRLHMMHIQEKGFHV
The method in brief:
(§1)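 Each kinase was incubated with a fluorescently labeled substrate and compound in a standard reaction mix. After the reaction was stopped, product and substrate were separated on microfluidic chips by electrophoretic mobility shift. Activity came from comparing product and substrate peak fluorescence, graded A (95% or greater), B (90%-94%) or C (80%-89%) at 5 um.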

Experiment [2] concerns the target T2, HIPK4 (Homo sapiens, UniProt Q8NE63).
T2 sequence (Q8NE63 1-616): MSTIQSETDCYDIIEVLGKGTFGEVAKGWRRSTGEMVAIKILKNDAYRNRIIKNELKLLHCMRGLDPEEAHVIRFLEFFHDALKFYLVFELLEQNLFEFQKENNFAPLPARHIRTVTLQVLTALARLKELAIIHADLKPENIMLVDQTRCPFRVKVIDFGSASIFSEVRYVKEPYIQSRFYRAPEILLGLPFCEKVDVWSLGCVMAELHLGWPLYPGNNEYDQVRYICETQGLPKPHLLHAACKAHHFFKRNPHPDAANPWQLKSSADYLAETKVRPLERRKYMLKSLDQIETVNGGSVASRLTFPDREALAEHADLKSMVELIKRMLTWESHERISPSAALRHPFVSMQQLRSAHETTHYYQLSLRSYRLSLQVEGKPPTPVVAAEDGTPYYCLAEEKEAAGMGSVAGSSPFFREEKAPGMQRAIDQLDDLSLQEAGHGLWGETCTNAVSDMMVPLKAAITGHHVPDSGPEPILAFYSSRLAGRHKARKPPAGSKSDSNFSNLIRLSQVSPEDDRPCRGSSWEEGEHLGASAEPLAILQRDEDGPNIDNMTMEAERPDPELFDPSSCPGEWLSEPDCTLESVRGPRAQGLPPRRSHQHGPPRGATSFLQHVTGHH
The method, boiled down:
as §1

Experiment [3] concerns the target T3, EPH-A8 (Homo sapiens, UniProt P29322).
T3 sequence (P29322 28-1005): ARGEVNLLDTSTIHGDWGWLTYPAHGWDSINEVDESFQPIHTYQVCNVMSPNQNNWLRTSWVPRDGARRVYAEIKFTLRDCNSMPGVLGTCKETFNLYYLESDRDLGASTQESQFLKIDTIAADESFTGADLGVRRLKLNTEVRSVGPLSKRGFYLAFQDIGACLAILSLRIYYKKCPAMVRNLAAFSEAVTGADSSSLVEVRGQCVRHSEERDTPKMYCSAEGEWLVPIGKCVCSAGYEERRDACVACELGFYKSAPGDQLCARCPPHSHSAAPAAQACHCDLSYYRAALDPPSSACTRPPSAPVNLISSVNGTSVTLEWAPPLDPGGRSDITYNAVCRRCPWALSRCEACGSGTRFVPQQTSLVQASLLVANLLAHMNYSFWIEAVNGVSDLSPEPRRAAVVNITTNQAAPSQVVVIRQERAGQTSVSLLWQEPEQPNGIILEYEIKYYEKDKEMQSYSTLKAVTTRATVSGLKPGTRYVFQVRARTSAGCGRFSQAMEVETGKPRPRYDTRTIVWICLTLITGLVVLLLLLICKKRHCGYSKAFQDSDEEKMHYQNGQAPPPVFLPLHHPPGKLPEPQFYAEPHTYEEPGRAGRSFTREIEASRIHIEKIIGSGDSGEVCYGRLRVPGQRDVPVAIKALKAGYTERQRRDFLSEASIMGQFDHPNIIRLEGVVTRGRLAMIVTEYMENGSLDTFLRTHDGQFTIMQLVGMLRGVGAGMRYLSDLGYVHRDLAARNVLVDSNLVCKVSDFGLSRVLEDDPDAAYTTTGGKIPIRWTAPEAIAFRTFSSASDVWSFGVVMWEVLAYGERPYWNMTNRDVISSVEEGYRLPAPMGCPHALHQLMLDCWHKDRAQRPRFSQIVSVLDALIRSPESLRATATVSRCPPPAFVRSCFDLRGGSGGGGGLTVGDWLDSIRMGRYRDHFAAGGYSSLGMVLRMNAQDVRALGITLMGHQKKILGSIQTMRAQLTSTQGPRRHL
The method, boiled down:
as §1

Broadly, the inhibition is the change of the read-out against control, counted positive when it falls. Regarding `CSc1nc(C(=O)Nc2ccc(Oc3ccnc(N)c3Cl)c(F)c2)c(-c2ccc(F)cc2)o1` [Compound 1], the inhibition at 5 µM in experiment [1] was under 50%; in experiment [2], 90 to 94%; in experiment [3], under 50%.

On to `CSc1nc(C(=O)Nc2ccc(Oc3cc4cnn(C)c4cc3Br)c(F)c2)c(-c2ccc(F)cc2)o1` [Compound 2], for which the figures for the inhibition at 5 µM in experiment [1], in experiment [2] and in experiment [3] were 50 to 79%, at least 95% and 50 to 79%, respectively.

With `CNC(=O)c1cc(Oc2ccc(NC(=O)c3nc(SC)oc3-c3ccc(F)cc3Cl)cc2)ccn1` [Compound 3], the inhibition at 5 µM in experiment [1] was 50 to 79%; in experiment [2] it was at least 95%; in experiment [3] it was 50 to 79%.

As to `CNC(=O)c1cc(Oc2ccc(NC(=O)c3nc(SC)oc3-c3ccc(F)c(F)c3)cc2)ccn1` [Compound 4], the figures for the inhibition at 5 µM in experiment [1], in experiment [2] and in experiment [3] were 50 to 79%, at least 95% and 50 to 79%, respectively.

With `CNC(=O)c1cc(Oc2ccc(NC(=O)c3nc(SC)oc3-c3ccc(Cl)s3)cc2)ccn1` [Compound 5], the inhibition at 5 µM lay in the range of 50 to 79% in experiment [1], 90 to 94% in experiment [2] and 50 to 79% in experiment [3].

On to `CNC(=O)c1cc(Oc2ccc(NC(=O)c3nc(SC)oc3-c3ccc(F)cc3F)cc2)ccn1` [Compound 6], for which the values for the inhibition at 5 µM in experiment [1], in experiment [2] and in experiment [3] were at least 95%, 90 to 94% and 80 to 89%, respectively.

On to `CNC(=O)c1cc(Oc2ccc(NC(=O)c3nc(SC)oc3-c3ccc(OC)cc3)cc2)ccn1` [Compound 7], for which the inhibition at 5 µM in experiment [1] was under 50%; in experiment [2], 90 to 94%; in experiment [3], under 50%.

For `CSc1nc(C(=O)Nc2ccc(Oc3ccnc(-c4cnn(C)c4)c3)c(F)c2)c(-c2ccc(F)cc2)o1` [Compound 11], the inhibition at 5 µM in experiment [1] is at least 95%; in experiment [2] it was at least 95%; in experiment [3], 80 to 89%.

Regarding `CNC(=O)c1cc(Oc2ccc(NC(=O)c3nc(SC)oc3-c3ccc(F)cc3F)cc2F)ccn1` [Compound 12], the inhibition at 5 µM is 80 to 89% in experiment [1], 90 to 94% in experiment [2] and 50 to 79% in experiment [3].

On to `CNC(=O)c1cc(Oc2ccc(NC(=O)c3nc(S(C)(=O)=O)sc3-c3ccc(F)cc3)cc2F)ccn1` [Compound 13], for which the results for the inhibition at 5 µM in experiment [1], in experiment [2] and in experiment [3] were at least 95%, at least 95% and 80 to 89%, respectively.

On to `CNC(=O)c1cc(Oc2ccc(NC(=O)c3nc(NC)oc3-c3ccc(F)cc3)cc2F)ccn1` [Compound 14], for which the inhibition at 5 µM in experiment [1] was 80 to 89%; in experiment [2], at least 95%; in experiment [3] it was 50 to 79%.

Regarding `CNC(=O)c1cc(Oc2ccc(NC(=O)c3nc(OC)oc3-c3ccc(F)cc3)cc2F)ccn1` [Compound 15], the figures for the inhibition at 5 µM in experiment [1], in experiment [2] and in experiment [3] were 90 to 94%, at least 95% and 80 to 89%, respectively.

`CNC(=O)c1cc(Oc2ccc(NC(=O)c3nc(SC)oc3-c3ccc(F)s3)cc2F)ccn1` [Compound 16]: the figures for the inhibition at 5 µM in experiment [1], in experiment [2] and in experiment [3] were 50 to 79%, at least 95% and under 50%, respectively.

Turning to `CNC(=O)c1cc(Oc2ccc(NC(=O)c3nc(NC)oc3-c3ccc(F)s3)cc2F)ccn1` [Compound 17], the inhibition at 5 µM in experiment [1] was under 50%; in experiment [2], at least 95%; in experiment [3], under 50%.

Take `CNC(=O)c1cc(Oc2c(F)cc(NC(=O)c3nc(NC)sc3-c3ccc(F)cc3)cc2F)ccn1` [Compound 19]: the inhibition at 5 µM in experiment [1] is 80 to 89%; in experiment [2], at least 95%; in experiment [3] it was 50 to 79%.

Consider `CNC(=O)c1cc(Oc2ccc(NC(=O)c3nc(NC)sc3-c3ccc(F)cc3F)cc2F)ccn1` [Compound 21], for which the inhibition at 5 µM in experiment [1] is 50 to 79%; in experiment [2] it was at least 95%; in experiment [3], 50 to 79%.

On to `CNC(=O)c1cc(Oc2ccc(NC(=O)c3nc(NC)sc3-c3ccc(F)cc3C)cc2F)ccn1` [Compound 23], for which the inhibition at 5 µM in experiment [1] lay within 80 to 89%; in experiment [2] it was 90 to 94%; in experiment [3], 50 to 79%.

In the case of `CNC(=O)c1cc(Oc2ccc(NC(=O)c3nc(OC)oc3-c3ccc(F)c(F)c3)cc2F)ccn1` [Compound 24], the inhibition at 5 µM is 50 to 79% in experiment [1], at least 95% in experiment [2] and 50 to 79% in experiment [3].

Regarding `CNC(=O)c1cc(Oc2ccc(NC(=O)c3nc(OC)oc3-c3ccc(F)s3)cc2F)ccn1` [Compound 25], the inhibition at 5 µM in experiment [1] is 50 to 79%; in experiment [2] it was at least 95%; in experiment [3], under 50%.

With `CNC(=O)c1cc(Oc2ccc(NC(=O)c3nc(C4CC4)oc3-c3ccc(F)cc3)cc2F)ccn1` [Compound 26], the inhibition at 5 µM in experiment [1] was 90 to 94%; in experiment [2], at least 95%; in experiment [3], 80 to 89%.

On to `CSc1nc(C(=O)Nc2ccc(Oc3ccnc(C(=O)NC4CNC4)c3)c(F)c2)c(-c2ccc(F)s2)o1` [Compound 27], for which the inhibition at 5 µM in experiment [1] was under 50%; in experiment [2], at least 95%; in experiment [3] it was under 50%.

For `CSc1nc(C(=O)Nc2ccc(Oc3ccnc(C(=O)NC4COC4)c3)c(F)c2)c(-c2ccc(F)s2)o1` [Compound 28], the inhibition at 5 µM in experiment [1] was under 50%; in experiment [2] it was at least 95%; in experiment [3], under 50%.

Turning to `CSc1nc(C(=O)Nc2ccc(Oc3ccnc(C(=O)NC4CNC4)c3)c(F)c2)c(-c2ccc(F)cc2)o1` [Compound 29], the inhibition at 5 µM in experiment [1] was 80 to 89%; in experiment [2] it was at least 95%; in experiment [3], 50 to 79%.

Turning to `CNC(=O)c1cc(Oc2ccc(NC(=O)c3nc(COC)oc3-c3ccc(F)cc3)cc2F)ccn1` [Compound 30], the inhibition at 5 µM in experiment [1] was at least 95%; in experiment [2], at least 95%; in experiment [3] it was 90 to 94%.

The record behind these values is patent publication US11629143B2, “HipK4 inhibitors and uses thereof” (Vibliome Therapeutics, LLC, priority 2020, dated 2023).
